One series has as its target JNK1 (Homo sapiens, UniProt P45983). Kind of series: KINOMEscan select kinase screen. The format is binding. As to conditions: two experiments. Here is the method: (§1) Kinase Assays. The kinase inhibition assays were conducted by DiscoverX on a platform assay by Ambit BioSciences as described previously 16,17. FKK6 was screened at a single concentration of 10 μM in duplicate. The scanMAXSM assay panel measures 468 kinases
(§2) (https://www.discoverx.com/services/drug-discovery-development-services/kinase-profiling/kinomescan/scanmax). The assays measure a compound’s ability to inhibit binding of a canonical ligand substrate, with 0% activity of control corresponding to full inhibition and 100% activity of control to no inhibition. […]

The target of the next series is S6K1 (Homo sapiens, UniProt P23443). Briefly: KINOMEscan select kinase screen. The class given is binding. The following applies: two experiments. Here is the method:
as §1, §2

A further series deals with T1, hPXR-LBD (PXR.1) (Homo sapiens, UniProt O75469).
T1 construct: made in house; host or cells: E. coli BL21-Gold
T1 sequence (O75469 146-433 limits assumed): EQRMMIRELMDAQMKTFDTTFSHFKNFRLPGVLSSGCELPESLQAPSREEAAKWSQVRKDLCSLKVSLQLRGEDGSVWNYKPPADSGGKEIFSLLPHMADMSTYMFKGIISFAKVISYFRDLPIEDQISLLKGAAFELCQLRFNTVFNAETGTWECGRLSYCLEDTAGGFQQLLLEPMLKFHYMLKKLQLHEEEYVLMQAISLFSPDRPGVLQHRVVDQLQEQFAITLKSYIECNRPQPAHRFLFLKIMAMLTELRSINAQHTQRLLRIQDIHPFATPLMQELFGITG
Kind of series: Isothermal titration calorimetry with His-tagged hPXR-LBD. As to conditions: 37°C; for Kd: single-site model. The format is binding. How it is done:
The cloning, expression, and purification of His‐tagged PXR‐LBD were performed as previously published (Wallace et al, 2013) with the following modifications: For protein expression, Luria–Bertani (LB) media were inoculated with a saturated culture of BL21‐Gold cells transformed with HIS‐LIC plasmid containing the PXR‐LBD construct. The mixture was allowed to shake at 37°C until the cells reached an OD600 ~ 0.6, and then, the temperature was reduced to 18°C, at which time IPTG was added (final concentration of 0.1 mM) to induce protein expression. For purification, the His‐tag was not removed, and the uncleaved protein was loaded onto the gel filtration column with buffer containing HEPES (4‐(2‐hydroxyethyl)‐1‐piperazineethanesulfonic acid) (25 mM, pH 7.5) and NaCl (150 mM).
Isothermal titration calorimetry (ITC) was carried out using a VP‐ITC microcalorimeter from MicroCal⁄Malvern Instruments (Northampton, MA, USA). […] In all the experiments, the ligand solution was injected in 10 μl aliquots into the calorimetric cell containing PXR‐LBD (ligand‐binding domain) at a concentration of 3–6 μM. […] The experiments were carried out at 37°C. The heat evolved upon each injection of the ligands was obtained from the integral of the calorimetric signal. The heat associated with binding to PXR‐LBD in the cell was obtained by subtracting the heat of dilution from the heat of reaction.
(In general: ITC needs no label: the signal is the heat of the interaction.)

Series [1] has as its system IL-8 mRNA in Caco-2 cells. Kind of series: IL-8 mRNA in Caco-2 monolayers exposed to cytokine cocktail. The class given is cell-based, human. Also noted: key to IL8 mRNA: relative IL-8 mRNA level, normalized to GAPDH. The following applies: for IL8 mRNA: Caco-2 cells, triplicate. Here is the method: Caco‐2 cell (ATCC, Manassas, VA) passages 25–35 were maintained and expanded in culture flasks in Dulbecco's modified Eagle's medium (DMEM) with 10% FBS and 1× antibiotic–antimycotic. The cells were kept in a humidified 37°C incubator with 5% CO2. Media were changed every 2–3 days, and cells were passaged 1–2 times a week. For all experiments, Caco‐2 cells (5 × 10^4 cells/ml) were seeded into 12‐well Transwell inserts or coverslips and cultured for 3 weeks. HIOs were generated from iPSCs as described previously (Spence et al, 2011), with some modifications. The iPSC cell line IISH1i‐BM1 (WiCell, Madison, WI) was cultured on Matrigel plates to 80% confluence in mTeSR™ 1 medium (Stem Cell Technologies, Seattle, WA) and differentiated to endoderm using Definitive Endoderm Kit (Stem Cell Technologies., Seattle, WA) for 4 days with daily media changes. Endoderm was then differentiated to hindgut for 5 days with the addition of FGF‐4 (500 ng/ml; Peprotech, Rocky Hill, NJ) and Chir99021 (3 μM; Cayman, Ann Arbor, MI) in RPMI media supplemented with 2% FBS. Floating hindgut spheroids were collected on days 3–5 of hindgut differentiation and suspended in Matrigel beads for HIO differentiation. HIOs were maintained in WENRAS media (Fujii et al, 2015), which maintains proliferation in the culture. Stock HIOs were passaged weekly by removing Matrigel with Cell Recovery Solution (Corning, NY) and mechanically breaking up organoids with pipetting. HIOs were seeded into new Matrigel beads at a 1:3 split, using WENRAS with added Rock Inhibitor Y‐27632 (10 μM) and Chir99021 (3 μM; Cayman., Ann Arbor, MI) for the first 2 days of culture.
Relative mRNA levels of IL‐8 and IL‐6 were determined using quantitative real‐time PCR, with normalization to GAPDH. RNA was isolated using an RNeasy Mini Kit (Qiagen) as per the manufacturer's instructions. On column DNase (Qiagen) was used to remove any contaminating DNA. Next, cDNA was formed using iScript cDNA Synthesis Kit (Bio‐Rad) and 100 ng RNA. qRT–PCR was performed with SsoAdvanced Universal SYBR Green Kit (Bio‐Rad). The following primers were used: IL‐8 Forward: […]; IL‐8 Reverse: […]; IL‐6 Forward: […]; IL‐6 Reverse: […]; GAPDH Forward: […]; GAPDH Reverse: […]. For immunofluorescent staining of NF‐ĸB translocation to the cell nucleus, HIOs and Caco‐2 cell monolayers were fixed in 4% formaldehyde (in 1 × PBS) overnight at 4°C. The formaldehyde was removed by washing with 1 × PBS, and an antigen retrieval step was performed by incubating in 10 mM sodium citrate buffer in a vegetable steamer for 20 min. The samples were then blocked with normal donkey serum (10% in PBS with 0.3% Triton X‐100) for 1 h. Samples were incubated overnight with primary antibodies: rabbit anti‐NF‐κB p65 (D14E12 # 8242, 1:400 dilution, Cell Signaling Technology, Danvers MA), then immersed in Alexa Fluor® 555 donkey anti‐rabbit secondary antibody (A‐31572, Life Technologies) at a 1:500 dilution. Nuclei were stained with Hoechst 33342 (Life Technologies). The samples were then imaged using a Zeiss LSM880 Confocal/Multiphoton Upright Microscope, with 3‐D image rendering using Volocity. For controls, normal rabbit IgG (#2729S, Life Technologies) was used.

Setting [2] is: compound 25µm, no cytokines, 2 hr.
[3] abbreviates: cytokines + compound 10µm, 2 hr.

Several values for one entry are separate records, joined by “and”; a condition that tells them apart may be missing. Equal entries are not always repeated.

Chain of S6K1 (P23443 whole entry): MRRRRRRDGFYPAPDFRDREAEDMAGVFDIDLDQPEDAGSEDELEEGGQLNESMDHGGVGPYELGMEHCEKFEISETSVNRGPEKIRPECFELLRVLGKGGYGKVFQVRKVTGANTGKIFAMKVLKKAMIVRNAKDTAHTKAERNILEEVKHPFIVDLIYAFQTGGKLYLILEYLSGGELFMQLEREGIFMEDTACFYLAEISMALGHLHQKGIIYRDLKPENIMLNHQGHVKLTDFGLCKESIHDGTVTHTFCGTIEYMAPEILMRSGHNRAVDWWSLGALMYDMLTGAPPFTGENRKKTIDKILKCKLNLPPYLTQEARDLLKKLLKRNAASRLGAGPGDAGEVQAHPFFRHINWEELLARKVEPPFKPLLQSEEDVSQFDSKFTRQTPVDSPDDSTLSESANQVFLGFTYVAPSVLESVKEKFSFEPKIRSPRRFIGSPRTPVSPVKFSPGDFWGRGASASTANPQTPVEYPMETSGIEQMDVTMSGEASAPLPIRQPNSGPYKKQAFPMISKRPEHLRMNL
Chain of JNK1 (P45983 whole entry): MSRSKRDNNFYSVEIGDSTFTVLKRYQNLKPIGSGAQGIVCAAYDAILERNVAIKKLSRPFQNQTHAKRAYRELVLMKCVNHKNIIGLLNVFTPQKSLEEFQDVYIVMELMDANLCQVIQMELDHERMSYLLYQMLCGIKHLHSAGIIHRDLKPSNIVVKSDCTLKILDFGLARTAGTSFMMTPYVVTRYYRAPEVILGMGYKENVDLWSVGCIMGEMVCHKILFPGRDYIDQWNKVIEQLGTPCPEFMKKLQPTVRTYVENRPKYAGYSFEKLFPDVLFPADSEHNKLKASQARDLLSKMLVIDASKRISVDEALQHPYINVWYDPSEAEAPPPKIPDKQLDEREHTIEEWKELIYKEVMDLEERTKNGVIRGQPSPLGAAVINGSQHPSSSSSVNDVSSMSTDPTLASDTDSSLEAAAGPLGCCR

On to `O=C(c1ccncc1)c1cc2ccccc2n1S(=O)(=O)c1ccccc1` [FKK5, (1-(phenylsulfonyl)-1H-indol-2-yl)(pyridin-4-yl)methanone], for which the “%Ctrl” value at JNK1 (10000 nM, 10 µM) is 95 %Ctrl; at JNK1 (25000 nM, 25 µM) it was 85 %Ctrl; at S6K1 (10000 nM, 10 µM), 79 %Ctrl and 100 %Ctrl; at S6K1 (25000 nM, 25 µM) it was 89 %Ctrl. The remaining binding at 10 µM on JNK1 (10000 nM, read-out: %Ctrl) was determined as 91%. Further, the remaining binding at 25 µM on JNK1 (25000 nM, read-out: %Ctrl) worked out at 66%; at S6K1 (25000 nM, read-out: %Ctrl), 71%. In addition, the “ΔH (enthalpy of binding)” value on hPXR-LBD (PXR.1) is -2.5 kcal/mol. For the same compound, the “−TΔS” value at hPXR-LBD (PXR.1) was -6.4 kcal/mol. The compound further had a Kd on hPXR-LBD (PXR.1) of 300 nM. The “IL8 mRNA” value in series [1] (setting [2]) was 11.5603 and 13.1808 and 10.1297; in series [1] (setting [3]) it was 168.69 and 99.441 and 183.41; in series [1] (cytokines + compound 25µm, 2 hr), 36.3596 and 45.4346 and 54.4045; in series [1] (cytokines + compound 25µm, 12 hr), 434.784 and 305.562 and 246.223.

As for `C#CCC(O)(c1ccncc1)c1cc2ccccc2n1S(=O)(=O)c1ccccc1` (centres unmarked) [FKK6], the “ΔH (enthalpy of binding)” value on hPXR-LBD (PXR.1) is -3.5 kcal/mol. Moreover, the “−TΔS” value at hPXR-LBD (PXR.1) was -4.1 kcal/mol. For the same compound, on hPXR-LBD (PXR.1), the Kd was 2700 nM. Besides, the “cytokine-induced IL-8 mRNA” value in series [1] (25 μM) was “significantly reduced”. Further, the “IL8 mRNA” value in series [1] (compound 10µm, no cytokines, 2 hr) is 2.554 and 1.974 and 1.5894; in series [1] (compound 10µm, no cytokines, 12 hr), 7.6 and 8.533 and 8.223; in series [1] (setting [2]), 55.8723 and 30.5592 and 31.4544; in series [1] (setting [3]), 40.0864 and 49.4401 and 49.4954; in series [1] (cytokines + compound 10µm, 12 hr), 83.1628 and 71.3481 and 97.9287.

The Kd is the constant that tells how readily two partners part at equilibrium.

Values taken from paper PMC7136958, “Targeting the pregnane X receptor using microbial metabolite mimicry” (EMBO Molecular Medicine, 2020).
